Data reported in US12467038B2, “Methods of culturing human pluripotent cells” (Hadasit Medical Research Services and Development Ltd., priority 2019, dated 2025).

Tested on: hPSCs
Assay: Undifferentiated propagation and PGC differentiation of hPSCs on laminin
Type: cell-based, human
Conditions: HES-2 hPSCs
Experimental: LN-hPSCs were cultured on mouse LN111, 3-D Culture Matrix Laminin I (CULTREX, TREVIGEN, #3446-005-01, Gaithersburg, Md., USA). 0.175 ml diluted LN111 (1:14 to a coating concentration of 0.43 mg/ml) was used to coat a well of a 6-well culture dish, leaving a margin of 2-3 mm at the well edge (a final concentration of ˜8 microgram/cm^2). The coated dishes were incubated from 4 hours to 4 days, at 37° C., and washed with PBS before use. LN-hPSCs were cultured in a medium composed of DMEM/F12, B27 supplement (1:50), N2 supplement (1:100), 2 mM L-glutamine, 50 units/ml penicillin, 50 μg/ml streptomycin (all from Invitrogen), and supplemented daily with 20 ng/ml FGF2 (Peprotech). Cells were passaged every 5-6 days using 1.5 mg/ml collagenase type IV (Invitrogen). 5 μM ROCK inhibitor (Y-27632, Peprotech) was added for the first day after passaging.
hPSCs were cultured on human recombinant LN521 (BIOLAMINA, Sundbyberg, Sweden). Coating of culture dishes with hrLN521 was performed according to the manufacturer's instructions (Coating concentration ˜0.45 microgram/cm^2). Cells were cultured in the same medium used for culturing LN-hPSCs, and passaged with collagenase type IV.
PGC differentiation of hPSCs in suspension—LN-hPSCs and hPSCs cultured on hrLN-521 were dissociated into a single-cell suspension using TrypLE Select Enzyme (Invitrogen). Primed hPSCs were first dissociated from the MEF feeders by treatment with collagenase type IV, followed by dissociation into single cells by TrypLE Select Enzyme. 2000-3000 cells were seeded into a microwell of AggreWell™800 24-well plate (STEMCELL Technologies), and cultured as EBs in suspension, in PGCLC differentiation medium as described elsewhere (Irie et al., 2015).

**Q.** For “LN111: mouse LN111, 3-D Culture Matrix Laminin I (CULTREX, TREVIGEN), coating of culture dishes”, which “competence to initiate germ cell specification” value is on record?
**A.** competent to initiate germ cell specification
